In patent publication US20120197004A1, “NOVEL ANTI-MICROBIAL PEPTIDOMIMETIC COMPOUNDS AND METHODS TO CALCULATE ANTI-MICROBIAL ACTIVITY” (priority 2006, published 2012):
In brackets after ≈: the same amount, converted by molar mass. Where a SMILES comes first, the peptide text is derived from it. [ ]: non-standard residue; d: D form. ξ: configuration not given here. Oic = O=C(O)[C@@H]1C[C@@H]2CCCC[C@@H]2N1; Tic = O=C(O)[C@@H]1Cc2ccccc2CN1; ξTic = O=C(O)C1Cc2ccccc2CN1; ξOic = O=C(O)C1CC2CCCCC2N1

What was measured:
[1] = test system: Staphylococcus aureus Methicillin/Gentamicin/Tetracycline Resistant (ATCC 33592); conditions: for MIC Staphylococcus aureus ME/GM/TC resistant: Minimal Inhibitory Concentration, tested at 100-0.1 in 1% DMSO; for Minimum Inhibitory Concentration Staphylococcus aureus ME/GM/TC resistant: in vitro MIC, tested at 100, 30, 10, 3, 1, 0.3 and 0.1 μM in 1% DMSO; for p(MIC) Staphylococcus aureus ME/GM/TC resistant: -log(MIC); for Actual Bioactivity: p(MIC) used in Staphylococcus aureus QSAR model
[2] = test system: Plasmodium falciparum W2 (CDC Indochina III chloroquine, quinine, pyrimethamine and sulfadoxine-resistant)
[3] = test system: Plasmodium falciparum D6 (CDC Sierra Leone, mefloquine resistant)
red blood cells = conditions: 100 μM
[4] = test system: Salmonella typhimurium (ATCC 13311)
[5] = test system: Mycobacterium ranae (ATCC 110)
[6] = test system: Bacillus subtillis (ATCC 43223)

SMILES | MIC Staphylococcus aureus ME/GM/TC resistant [1] [mM] | Minimum Inhibitory Concentration Staphylococcus aureus ME/GM/TC resistant [1] [µM] | IC50 * W2 [2] [µg/mL] | IC50 * D6 [3] [µg/mL] | p(MIC) Staphylococcus aureus ME/GM/TC resistant [1] | Actual Bioactivity [1] | % hemolysis 100/25 μM (first value) (red blood cells) [%] | Minimum Inhibitory Concentration Salmonella typhimurium ([4]; in vitro MIC, tested at 100, 30, 10, 3, 1, 0.3 and 0.1 μM in 1% DMSO) | Actual Bioactivity [5] | MIC Mycobacterium ranae [5] [mM] | Minimum Inhibitory Concentration Mycobacterium ranae [5] | p(MIC) Salmonella typhimurium ([4]; -log(MIC)) | MIC Salmonella typhimurium ([4]; ATCC 13311) [mM] | p(MIC) Bacillus Subtillis ([6]; -log(MIC)) | MIC Bacillus Subtillis ([6]; ATCC 43223) [mM]
CC(C)C[C@H](NC(=O)CNC(=O)[C@H](CCCCN)NC(=O)CN)C(=O)N1Cc2ccccc2CC1C(=O)N1C(C(=O)NCC(=O)N[C@@H](CCCCN)C(=O)N2Cc3ccccc3CC2C(=O)N2C(C(=O)NCC(=O)N[C@@H](Cc3ccccc3)C(=O)N3Cc4ccccc4CC3C(=O)N3C(C(=O)NCC(=O)N[C@@H](CCCCN)C(=O)N4Cc5ccccc5CC4C(=O)N4C(C(=O)NCC(=O)N[C@@H](Cc5ccccc5)C(=O)N5Cc6ccccc6CC5C(=O)N5C(C(=O)NCC(=O)N[C@@H](CCCCN)C(=O)N6Cc7ccccc7CC6C(=O)N6C(C(=O)NCC(=O)N[C@@H](CCCCN)C(=O)N[C@@H](CCCNC(=N)N)C(N)=O)CC7CCCCC76)CC6CCCCC65)CC5CCCCC54)CC4CCCCC43)CC3CCCCC32)CC2CCCCC21 (stereo partly drawn) [WRFK-1, NH2-GKGL-Tic-Oic-GK-Tic-Oic-GF-Tic-Oic-GK-Tic-Oic-GF-Tic-Oic-GK-Tic-Oic-GKR-CONH2] (H-GKGL[ξTic][ξOic]GK[ξTic][ξOic]GF[ξTic][ξOic]GK[ξTic][ξOic]GF[ξTic][ξOic]GK[ξTic][ξOic]GKR-NH2) | 0.01 (≈ 0.0354 mg/mL) | 10 | 5.7 (≈ 1.61 µM) | 7.3 (≈ 2.06 µM) | – | – | – | – | – | – | – | – | – | – | –
CC(C)C[C@H](NC(=O)CNC(=O)[C@@H]1C[C@@H]2CCCC[C@@H]2N1C(=O)[C@@H]1Cc2ccccc2CN1C(=O)[C@H](CC(C)C)NC(=O)CNC(=O)[C@@H]1C[C@@H]2CCCC[C@@H]2N1C(=O)[C@@H]1Cc2ccccc2CN1C(=O)[C@H](CCCCN)NC(=O)CNC(=O)[C@@H]1C[C@@H]2CCCC[C@@H]2N1C(=O)[C@@H]1Cc2ccccc2CN1C(=O)[C@H](CC(C)C)NC(=O)CNC(=O)[C@@H]1C[C@@H]2CCCC[C@@H]2N1C(=O)[C@@H]1Cc2ccccc2CN1C(=O)[C@H](CCCCN)NC(=O)CNC(=O)[C@@H]1C[C@@H]2CCCC[C@@H]2N1C(=O)[C@@H]1Cc2ccccc2CN1C(=O)[C@H](CC(C)C)NC(=O)CNC(=O)[C@@H]1C[C@@H]2CCCC[C@@H]2N1C(=O)[C@@H]1Cc2ccccc2CN1C(=O)[C@H](CC(C)C)NC(=O)CNC(=O)[C@H](CCCCN)NC(=O)CN)C(=O)N[C@@H](CCCNC(=N)N)C(N)=O [WRFK-3, NH2-GKGL-Tic-Oic-GL-Tic-Oic-GK-Tic-Oic-GL-Tic-Oic-GK-Tic-Oic-GL-Tic-Oic-GLR-CONH2] (H-GKGL[Tic][Oic]GL[Tic][Oic]GK[Tic][Oic]GL[Tic][Oic]GK[Tic][Oic]GL[Tic][Oic]GLR-NH2) | 0.1 (≈ 0.344 mg/mL) | 100 | 7.2 (≈ 2.09 µM) | 5.2 (≈ 1.51 µM) | 4.00 | 4.000 | 100 | not active | – | – | – | – | – | – | –
CC(C)C[C@H](NC(=O)CNC(=O)[C@H](CCCCN)NC(=O)CN)C(=O)N1Cc2ccccc2C[C@H]1C(=O)N1[C@H](C(=O)N[C@@H](Cc2ccccc2)C(=O)N[C@@H](CCCCN)C(=O)N2Cc3ccccc3C[C@H]2C(=O)N2[C@H](C(=O)N[C@@H](CCCCN)C(=O)N[C@@H](Cc3ccccc3)C(=O)N3Cc4ccccc4C[C@H]3C(=O)N3[C@H](C(=O)N[C@@H](Cc4ccccc4)C(=O)N[C@@H](CCCCN)C(=O)N4Cc5ccccc5C[C@H]4C(=O)N4[C@H](C(=O)N[C@@H](CCCCN)C(=O)N[C@@H](Cc5ccccc5)C(=O)N5Cc6ccccc6C[C@H]5C(=O)N5[C@H](C(=O)N[C@@H](Cc6ccccc6)C(=O)N[C@@H](CCCCN)C(=O)N6Cc7ccccc7C[C@H]6C(=O)N6[C@H](C(=O)N[C@@H](Cc7ccccc7)C(=O)N[C@@H](CCCCN)C(=O)N[C@@H](CCCNC(=N)N)C(N)=O)C[C@@H]7CCCC[C@@H]76)C[C@@H]6CCCC[C@@H]65)C[C@@H]5CCCC[C@@H]54)C[C@@H]4CCCC[C@@H]43)C[C@@H]3CCCC[C@@H]32)C[C@@H]2CCCC[C@@H]21 [WRFK-5, NH2-GKGL-Tic-Oic-FK-Tic-Oic-KF-Tic-Oic-FK-Tic-Oic-KF-Tic-Oic-FK-Tic-Oic-FKR-CONH2] (H-GKGL[Tic][Oic]FK[Tic][Oic]KF[Tic][Oic]FK[Tic][Oic]KF[Tic][Oic]FK[Tic][Oic]FKR-NH2) | 0.03 (≈ 0.121 mg/mL) | 30 | 4.2 (≈ 1.04 µM) | 3.9 (≈ 0.965 µM) | 4.52 | 4.520 | 100 | – | 0.000 | 1000 (≈ 4040 mg/mL) | not active | 4.00 | 0.1 (≈ 0.404 mg/mL) | 5.52 | 0.003 (≈ 0.0121 mg/mL)
